Reference: patent publication US20230193262A1, “Nucleic acid molecules capable of modulating target gene expression and uses thereof” (KOREA ADVANCED INSTITUTE OF SCIENCE AND TECHNOLOGY, priority 2021, published 2023)

What was measured:
[1] = tested on: MCF-7 breast cancer cells; test: Cell viability / apoptosis in MCF-7; type: cell-based; details: single siRNA, final concentration 60 nM
Description: The miRNA triggers were assayed for cytotoxicity and apoptosis induction, using the CCK-8 (Cell Counting Kit-8) (Dojindo, Kumamoto, Japan) according to the manufacturer's instruction. Cells were incubated in 96-well plates (5×10^3 cells/well) at 37° C. for 24 hours under a 5% CO2 atmosphere, followed by transfection. Three days after transfection, the medium was removed. A 10-fold dilution of CCK-8 solution in DMEM was added to the cells which were then incubated at 37° C. for 2 hours. After incubation, absorbance was read at 450 nm on Tecan Infinite M200 pro microplate reader (Mnnedorf, Switzerland).
An siRNA targeting bcl-2, bcl-xL, or mcl-1 was transfected into MCF-7 breast cancer cells and PANC-1 pancreatic cancer cells. By using qRT-PCR, establishment was made of a condition under which the expression of each target gene is decreased by 80% or more (transfection was performed at a concentration of 60 nM with the aid of Lipofectamine). As a negative control, a Luc (Luciferase)-targeting siRNA (siLuc) was used. Under the same condition of decreasing the expression of each target gene by 80% or more, the cells transfected with the siRNAs were measured for apoptosis, and the results are depicted in FIGS. 14a and 14b.
Linear miRNA triggers that could bind to miR-141 or let7f and target bcl-xL or mcl-1 were prepared and transfected alone or in combination into the breast cancer cell line MCF-7 which was then measured for cell viability. Every nucleotide of the triggers and controls was chemically modified with 2′-OMe.
First, MCF-7 was measured for cell viability after treatment with siMCL-1, siBCL-xL, and siBCL-2 (FIG. 48). […] The final concentration of the siRNAs was 60 nM.
Next, examination was made of the apoptosis when two or more genes were regulated together. MCF-7 was measured for cell viability after treatment with siMCL-1+siBCL-xL, siMCL-1+siBCL-2, siBCL-xL+siBCL-2, and siMCL-1+siBCL-xL+siBCL-2 (FIG. 49).
Finally, experiments under all the conditions (individual and simultaneous regulation) were conducted simultaneously so as to compare effects thereof. […]

cleaved PARP = test: Western blot of apoptotic marker cleaved PARP; type: cell-based; details: blood cancer cell line HL-60
Description: miRNA triggers were transfected into cells in the same manner as in Reference Example 4. After 72 hours, the cells were collected using a cell scraper and lysed with a RIPA buffer (NaCl 150 mM, EDTA 5 mM, Tris 50 mM, NP-40 1.0%, sodium deoxycholate 0.5%, SDS 0.1%). The cell lysate was sonicated 15 times, each for 20 sec, with a halt for 30 sec every sonication. Following centrifugation at 5,000 g for 5 min, the supernatant was taken and used to extract proteins therefrom. A total of 30-40 μg of protein sample was separated in 10-15% SDS-PAGE gel and transferred onto a PVDF membrane through a semi-dry blotting system. The membrane was blocked for 1 hour in 5% skimmed milk and incubated for 2 hours with a 1,000-fold dilution of a primary antibody in, 1% skimmed milk. […] The membrane incubated with the secondary antibody was washed three times with 1×PBST for 10 min each wash, and then reacted with Clarity Western ECL Substrate (#1705061, Bio-Rad), after which images were obtained and analyzed using ChemiDoc (Bio-rad, Hercules, USA). […]
The cells transfected with the selected miRNA triggers were measured for protein expression levels of the target Bcl-xL and the apoptotic marker cleaved PARP through western blotting, and the results are depicted in FIG. 32b.

## siBcl-2: siRNA targeting bcl-2; SEQ ID NO 62 (AUCAAUCUUCAGCACUCUC; listed as RNA, chemistry not given here)
[1]
  apoptosis (cell viability): apoptosis was detected
Cleaved PARP
  expression of the apoptotic marker cleaved PARP: upregulated
